Source: PMC10674894 (Viruses, 2023)

How the values were obtained:
Vero cells = test: Cytotoxicity MTT assay in Vero cells (MNTD, CC50); format: cell-based, African green monkey
CHIKV DRDE-07 = test: In vitro screening against CHIKV (CPE inhibition and MTT cell viability); format: cell-based, chikungunya virus; conditions: for % Cell viability / CPE: Table S1, CHIKV-infected Vero cells; for % Cell viability / Cell Viability: 72 hpi; for % Cell viability: MTT assay; for CPE: arbitrary score of cytopathic effect at >48 hpi; for Cell Viability: CHIKV-infected Vero cells treated at MNTD, MTT, cell control + DMSO = 100%
[1] = maximum nontoxic dose in Vero cells, MTT

Compound | MNTD (Vero cells; Table S1, Vero cells) [µM] | % Cell viability (CHIKV DRDE-07) [%] | CPE (CHIKV DRDE-07) | MNTD (Vero cells; [1]) [µM] | Cell Viability (CHIKV DRDE-07) [%]
CC(=O)Cc1noc(-c2cc(Cl)ccc2Cl)n1 [DCR83, 1-[5-(2,5-dichlorophenyl)-1,2,4-oxadiazol-3-yl]propan-2-one] | 230.55 | 10.49 | ++++ (>60% (++++)) | – | –
COc1ccc(C2NC(=O)NC(C)=C2C(=O)OCc2ccccc2)cc1 (centres unmarked) [DCR102, benzyl 4-(4-methoxyphenyl)-6-methyl-2-oxo-1,2,3,4-tetrahydropyrimidine-5-carboxylate] | 250 | 8.11 | ++++ (>60% (++++)) | – | –
C#CCOC(=O)C1=C(C)NC(=O)NC1c1ccccc1 (centres unmarked) [DCR92, prop-2-yn-1-yl 6-methyl-2-oxo-4-phenyl-1,2,3,4-tetrahydropyrimidine-5-carboxylate] | 462.48 | 12.8 | ++++ (>60% (++++)) | – | –
Cc1ccc(C2C3=C(CC(C)(C)CC3=O)OC3=C2C(=O)CC(C)(C)C3)cc1 [DCR127, 3,3,6,6‐tetramethyl‐9‐(4‐methylphenyl)‐2,3,4,5,6,7,8,9‐octahydro‐1H‐xanthene‐1,8‐dione] | 125 | 10.21 | ++++ (>60% (++++)) | – | –
Cc1ccccc1/C=N/NC(=O)c1cccnc1 [DCR15, (E)-N'-(2-methylbenzylidene)nicotinohydrazide] | 31.25 | 14.76 | ++++ (>60% (++++)) | – | –
N#Cc1ccccc1N1CCOCC1 [DCR146, 2-Morpholin-4-yl-benzonitrile] | 250 | -3.98 | ++++ (>60% (++++)) | – | –
Brc1cc2c(c3ncccc13)Oc1cc(Br)c3cccnc3c1O2 [DCR 2, 5,12-dibromo-[1,4]dioxino[2,3-h:5,6-h’]diquinoline] | 50 | – | ++ (50-30% (++)) | 50 | 63
C#CCOC(=O)C1=C(C)NC(=O)NC1c1ccc(OC)cc1 (centres unmarked) [DCR86, prop-2-yn-1-yl 4-(4-methoxyphenyl)-6-methyl-2-oxo-1,2,3,4-tetrahydropyrimidine-5-carboxylate] | 208.12 | 10.59 | ++++ (>60% (++++)) | – | –
CC(=O)Cc1noc(C(c2ccccc2)c2ccccc2)n1 [DCR79, 1-[5-(diphenylmethyl)-1,2,4-oxadiazol-3-yl]propan-2-one] | 125 | 16.42 | ++++ (>60% (++++)) | – | –
C/C(=N\NC(=O)c1ccncc1)c1ccccc1N [DCR51, (E)-2-(1-(2-isonicotinoylhydrazono)ethyl)benzenaminium] | 62.5 | -2.93 | ++++ (>60% (++++)) | – | –
C#CCOC(=O)C1=C(C)NC(=O)NC1c1ccc(Cl)cc1 (centres unmarked) [DCR88, prop-2-yn-1-yl 4-(4-chlorophenyl)-6-methyl-2-oxo-1,2,3,4-tetrahydropyrimidine-5-carboxylate] | 205.1 | 11.05 | ++++ (>60% (++++)) | – | –
Clc1ccc(C2c3c(ccc4ccccc34)Oc3ccc4ccccc4c32)cc1 [DCR115, 2‐(4‐chlorophenyl)‐13‐oxapentacyclo[12.8.0.0³,¹².0⁴,⁹.0¹⁷,²²]docosa‐1(14),3,5,7,9,11,15,17(22),18,20‐decaene] | 125 | 17.1 | ++++ (>60% (++++)) | – | –
O=C(N/N=C/c1ccccc1[N+](=O)[O-])c1cccnc1 [DCR20, (E)-N'-(2-nitrobenzylidene)nicotinohydrazide] | 31.25 | 22.69 | ++++ (>60% (++++)) | – | –
Cc1ccc(/C=N/NC(=O)c2ccncc2)cc1 [DCR31, (E)-N'-(4-methylbenzylidene)isonicotinohydrazide] | 62.5 | 1.03 | ++++ (>60% (++++)) | – | –
C=CCOC(=O)C1=C(C)NC(=O)NC1c1ccc(OC)cc1 (centres unmarked) [DCR98, prop-2-en-1-yl 4-(4-methoxyphenyl)-6-methyl-2-oxo-1,2,3,4-tetrahydropyrimidine-5-carboxylate] | 413.46 | 12.66 | ++++ (>60% (++++)) | – | –
CCOc1cc(/C=N/NC(=O)c2ccncc2)ccc1O [DCR33, (E)-N'-(3-ethoxy-4-hydroxybenzylidene)isonicotinohydrazide] | 62.5 | 0 | ++++ (>60% (++++)) | – | –
C#CCOC(=O)C1=C(C)NC(=O)NC1c1ccc(F)cc1 (centres unmarked) [DCR90, prop-2-yn-1-yl 4-(4-fluorophenyl)-6-methyl-2-oxo-1,2,3,4-tetrahydropyrimidine-5-carboxylate] | 433.62 | 12.59 | ++++ (>60% (++++)) | – | –
CC1(C)CC(=O)C2=C(C1)OC1=C(C(=O)CC(C)(C)C1)C2c1ccc([N+](=O)[O-])cc1 [DCR126, 3,3,6,6‐tetramethyl‐9‐(4‐nitrophenyl)‐2,3,4,5,6,7,8,9‐octahydro‐1H‐xanthene‐1,8‐dione] | 15.6 | 17.99 | ++++ (>60% (++++)) | – | –

Compound | MNTD (Vero cells; Table S1, Vero cells) [µM] | % Cell viability (CHIKV DRDE-07) [%] | CPE (CHIKV DRDE-07) | MNTD (Vero cells; [1]) [µM] | Cell Viability (CHIKV DRDE-07) [%]
CC(=O)Cc1noc(-c2ccc(Br)cc2)n1 [DCR85, 1-[5-(4-bromophenyl)-1,2,4-oxadiazol-3-yl]propan-2-one] | 222.34 | 10.38 | ++++ (>60% (++++)) | – | –
COc1ccc(C2NC(=O)NC(C)=C2C(=O)OCCC(C)C)cc1 (centres unmarked) [DCR96, 3-methylbutyl 4-(4-methoxyphenyl)-6-methyl-2-oxo-1,2,3,4-tetrahydropyrimidine-5-carboxylate] | 376.06 | 11.71 | ++++ (>60% (++++)) | – | –
O=C1NC(c2cccc(Cl)c2)c2c(ccc3ccccc23)O1 (centres unmarked) [DCR67, 1-(3-chlorophenyl)-1H,2H,3H-naphtho[1,2-e][1,3]oxazin-3-one] | 50.44 | 10.94 | ++++ (>60% (++++)) | – | –
CC(=O)Cc1noc(C2CCCCC2)n1 [DCR80, 1-(5-cyclohexyl-1,2,4-oxadiazol-3-yl)propan-2-one] | 125 | 29.64 | ++++ (>60% (++++)) | – | –
N#Cc1cc(F)ccc1N1CCCCC1 [DCR145, 5-Fluoro-2-piperidin-1-yl-benzonitrile] | 125 | 0 | ++++ (>60% (++++)) | – | –
C#CCOC(=O)C1=C(C)NC(=O)NC1c1ccc(CC)cc1 (centres unmarked) [DCR87, prop-2-yn-1-yl 4-(4-ethylphenyl)-6-methyl-2-oxo-1,2,3,4-tetrahydropyrimidine-5-carboxylate] | 104.58 | 11.61 | ++++ (>60% (++++)) | – | –
O=[N+]([O-])c1ccc(N2CCCCC2)c([N+](=O)[O-])c1 [DCR144, 1-(2,4-Dinitro-phenyl)-piperidine] | 125 | 25.21 | ++++ (>60% (++++)) | – | –
c1cncc(C2c3c(ccc4ccccc34)Oc3ccc4ccccc4c32)c1 [DCR121, 3‐{13‐oxapentacyclo[12.8.0.0³,¹².0⁴,⁹.0¹⁷,²²]docosa‐1(14),3,5,7,9,11,15,17(22),18,20‐decaen‐2‐yl}pyridine] | 31.25 | 8.03 | ++++ (>60% (++++)) | – | –
(E)-N'-(5-bromo-2-methoxybenzylidene)nicotinohydrazide [DCR24] | 15.6 | 25.23 | ++++ (>60% (++++)) | – | –
O=C(NNC(=O)c1cccnc1)c1ccc(Cl)cc1 [DCR6, N'-(4-chlorobenzoyl)nicotinohydrazide] | 31.25 | 16.98 | ++++ (>60% (++++)) | – | –
CC(C)C1c2c(ccc3ccccc23)Oc2ccc3ccccc3c21 [DCR120, 2‐(propan‐2‐yl)‐13‐oxapentacyclo[12.8.0.0³,¹².0⁴,⁹.0¹⁷,²²]docosa‐1(14),3,5,7,9,11,15,17(22),18,20‐decaene] | 31.25 | 19.24 | ++++ (>60% (++++)) | – | –
C=C(C)CCOC(=O)C1=C(C)NC(=O)NC1c1ccc(OC)cc1 (centres unmarked) [DCR103, 3-methylbut-3-en-1-yl 4-(4-methoxyphenyl)-6-methyl-2-oxo-1,2,3,4-tetrahydropyrimidine-5-carboxylate] | 250 | 21.11 | ++++ (>60% (++++)) | – | –
COc1cc(Br)cc(C2C3=C(CC(C)(C)CC3=O)OC3=C2C(=O)CC(C)(C)C3)c1 [DCR131, 9‐(3‐bromo‐5‐methoxyphenyl)‐3,3,6,6‐tetramethyl‐2,3,4,5,6,7,8,9‐octahydro‐1H‐xanthene‐1,8‐dione] | 125 | 8.01 | ++++ (>60% (++++)) | – | –
CC1=C(C(=O)OCCN(C)C)C(c2ccc([N+](=O)[O-])cc2)NC(=O)N1 (centres unmarked) [DCR73, 2-(dimethylamino)ethyl 6-methyl-4-(4-nitrophenyl)-2-oxo-1,2,3,4-tetrahydropyrimidine-5-carboxylate] | 31.25 | 24.54 | ++++ (>60% (++++)) | – | –
Nc1nc(N)c2ccc(F)cc2n1 [DCR 136, 7-fluoro-quinazoline-2,4-diamine] | 250 | – | ++ (50-30% (++)) | 250 | 54
C#CCOC(=O)C1=C(C)NC(=O)NC1c1cccc(F)c1 (centres unmarked) [DCR95, prop-2-yn-1-yl 4-(3-fluorophenyl)-6-methyl-2-oxo-1,2,3,4-tetrahydropyrimidine-5-carboxylate] | 433.62 | 11.54 | ++++ (>60% (++++)) | – | –
Cc1ccc(C2NC(=O)Oc3ccc4ccccc4c32)cc1 (centres unmarked) [DCR66, 1-(4-methylphenyl)-1H,2H,3H-naphtho[1,2-e][1,3]oxazin-3-one] | 54 | 12.24 | ++++ (>60% (++++)) | – | –
